Experiments:
Endothelin-1 receptor = biological target: T1, Endothelin-1 receptor (Homo sapiens, UniProt P25101); assay: Inhibitory activity against [125I]ET1 binding to human endothelin A receptor
T1 sequence (P25101 whole entry): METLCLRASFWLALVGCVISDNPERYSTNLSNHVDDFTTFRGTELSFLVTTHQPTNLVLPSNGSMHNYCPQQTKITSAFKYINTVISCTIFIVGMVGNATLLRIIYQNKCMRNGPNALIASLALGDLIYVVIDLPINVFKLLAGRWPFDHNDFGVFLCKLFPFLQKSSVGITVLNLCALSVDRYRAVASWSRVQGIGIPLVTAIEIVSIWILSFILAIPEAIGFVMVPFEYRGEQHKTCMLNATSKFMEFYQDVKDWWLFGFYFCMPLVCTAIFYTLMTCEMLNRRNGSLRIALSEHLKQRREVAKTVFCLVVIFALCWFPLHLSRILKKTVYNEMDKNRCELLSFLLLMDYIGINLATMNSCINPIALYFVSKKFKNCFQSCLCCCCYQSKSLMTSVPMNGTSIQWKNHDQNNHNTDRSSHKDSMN

[1] = biological target: T2, Endothelin receptor type B (Homo sapiens, UniProt P24530); assay: Inhibitory activity against [125I]ET1 binding to human endothelin B receptor
T2 sequence (P24530 whole entry): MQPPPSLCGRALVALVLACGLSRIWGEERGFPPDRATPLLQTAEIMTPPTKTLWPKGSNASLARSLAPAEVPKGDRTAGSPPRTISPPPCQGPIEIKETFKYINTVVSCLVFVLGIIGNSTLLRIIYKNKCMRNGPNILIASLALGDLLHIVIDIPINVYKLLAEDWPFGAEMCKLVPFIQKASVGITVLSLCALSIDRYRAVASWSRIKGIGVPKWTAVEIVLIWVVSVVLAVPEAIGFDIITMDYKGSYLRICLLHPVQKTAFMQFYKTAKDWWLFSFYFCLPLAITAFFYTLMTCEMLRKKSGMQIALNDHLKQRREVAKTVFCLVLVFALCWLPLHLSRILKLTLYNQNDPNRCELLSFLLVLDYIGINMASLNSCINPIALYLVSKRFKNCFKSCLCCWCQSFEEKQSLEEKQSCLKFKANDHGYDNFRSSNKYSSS

[2] = biological target: Endothelin receptor, ET-A/ET-B (Homo sapiens) (UniProt P24530+P25101); assay: Selectivity ratio of inhibitory activity towards endothelin receptor A to endothelin receptor B (ETB/ETA); type: protein assay
Rattus norvegicus [3] = assay: Plasma levels of compound was evaluated in rats after 4 hr of oral administration at 10 mg/kg; type: functional, organism-based; set-up: dose 10 mg/kg
Rattus norvegicus [4] = assay: Plasma levels of compound was evaluated in rats after 8 hr of oral administration at 10 mg/kg; type: functional, organism-based; set-up: dose 10 mg/kg
Rattus norvegicus [5] = assay: Plasma levels of compound was evaluated in rats after 1 hr of oral administration at 10 mg/kg; type: functional, organism-based; set-up: dose 10 mg/kg
Rattus norvegicus [6] = assay: Plasma levels of compound was evaluated in rats after 4 hr of oral administration at 3 mg/kg; type: functional, organism-based; set-up: dose 3 mg/kg
Rattus norvegicus [7] = assay: Plasma levels of compound was evaluated in rats after 8 hr of oral administration at 3 mg/kg; type: functional, organism-based; set-up: dose 3 mg/kg
Rattus norvegicus [8] = assay: Plasma levels of compound was evaluated in rats after 1 hr of oral administration at 3 mg/kg; type: functional, organism-based; set-up: dose 3 mg/kg
Mus musculus = assay: In vivo efficacy of compound was determined in mouse after intravenous administration; type: functional
Oryctolagus cuniculus = species: Oryctolagus cuniculus; assay: Antagonistic activity towards endothelin A receptor was evaluated using the rabbit iliac artery in presence of 3% human serum albumin; type: functional
[9] = Bioavailability in rat (dose 1 mg/kg i.v.); type: ADME, organism-based; settings: in vivo, iv
[10] = Bioavailability in rat (dose 3 mg/kg p.o.); type: ADME, organism-based; settings: in vivo, po

Row | IC50 (Endothelin-1 receptor) | IC50 [1] | Selectivity ratio [2] | SMILES | other results
1 | 0.011 nM | 11 nM |  | CCC(CO)Cc1cc(OC)ccc1[C@@H]1c2nc(NC(C)C)ccc2[C@H](c2ccc3c(c2)OCO3)[C@H]1C(=O)O (stereo in doubt; form 2) [listing 1 of 2 here] | 
2 | 0.86 nM | 420 nM | 490 | COc1ccc([C@@H]2c3nc(NC(C)C)ccc3[C@H](c3ccc4c(c3)OCO4)[C@H]2C(=O)O)c(OCC(C)C)c1 | 
3 | 0.74 nM | 45 nM | 61 | CCOc1cc(OC)ccc1[C@@H]1c2nc(NC(C)C)ccc2[C@H](c2ccc3c(c2)OCO3)[C@H]1C(=O)O | 
4 |  |  |  | COc1ccc([C@@H]2c3nc(NC(C)C)ccc3[C@H](c3ccc4c(c3)OCO4)[C@H]2C(=O)O)c(OC(C)CO)c1 (stereo in doubt; form 2) [listing 1 of 2 here] | Plasma level (Rattus norvegicus [3]): 20 nM; Plasma level (Rattus norvegicus [4]): 69 nM; Plasma level (Rattus norvegicus [5]): 440 nM
5 |  |  | 350 | CCC(CO)Cc1cc(OC)ccc1[C@@H]1c2nc(NC(C)C)ccc2[C@H](c2ccc3c(c2)OCO3)[C@H]1C(=O)O (stereo in doubt; form 1) [listing 1 of 2 here] | 
6 | 0.014 nM | 9.5 nM |  | COc1ccc([C@@H]2c3nc(NC(C)C)ccc3[C@H](c3ccc4c(c3)OCO4)[C@H]2C(=O)O)c(CC(C)C(=O)N(C)C)c1 (single isomer, unassigned) [listing 1 of 2 here] | 
7 |  |  | 1300 | COc1ccc([C@@H]2c3nc(NC(C)C)ccc3[C@H](c3ccc4c(c3)OCO4)[C@H]2C(=O)O)c(CC(C)CO)c1 (stereo in doubt; form 1) [listing 1 of 2 here] | Plasma level (Rattus norvegicus [6]): 22 nM; Plasma level (Rattus norvegicus [7]): 11 nM; Plasma level (Rattus norvegicus [8]): 110 nM
8 | 0.047 nM | 25 nM | 530 | COc1ccc([C@@H]2c3nc(NC(C)C)ccc3[C@H](c3ccc4c(c3)OCO4)[C@H]2C(=O)O)c(OC)c1 | 
9 | 0.41 nM | 100 nM | 240 | CCCOc1cc(OC)ccc1[C@@H]1c2nc(NC(C)C)ccc2[C@H](c2ccc3c(c2)OCO3)[C@H]1C(=O)O | 
10 |  |  | 1900 | COCC(C)Cc1cc(OC)ccc1[C@@H]1c2nc(NC(C)C)ccc2[C@H](c2ccc3c(c2)OCO3)[C@H]1C(=O)O (stereo in doubt; form 1) | Plasma level (Rattus norvegicus [6]): 81 nM; Plasma level (Rattus norvegicus [7]): 52 nM; Plasma level (Rattus norvegicus [8]): 220 nM
11 |  |  | 910 | CCC(CO)Cc1cc(OC)ccc1[C@@H]1c2nc(NC(C)C)ccc2[C@H](c2ccc3c(c2)OCO3)[C@H]1C(=O)O (stereo in doubt; form 2) [listing 2 of 2 here] | 
12 | 0.011 nM | 25 nM |  | COCC(C)Cc1cc(OC)ccc1[C@@H]1c2nc(NC(C)C)ccc2[C@H](c2ccc3c(c2)OCO3)[C@H]1C(=O)O (stereo in doubt; form 2) [listing 1 of 2 here] | AD50 (Mus musculus): 0.042 MPK
13 |  |  | 550 | COc1ccc([C@@H]2c3nc(NC(C)C)ccc3[C@H](c3ccc4c(c3)OCO4)[C@H]2C(=O)O)c(CC(O)CO)c1 (single isomer, unassigned) [listing 1 of 2 here] | 
14 | 0.041 nM | 54 nM |  | COc1ccc([C@@H]2c3nc(NC(C)C)ccc3[C@H](c3ccc4c(c3)OCO4)[C@H]2C(=O)O)c(CC(C)CO)c1 (stereo in doubt; form 1) [listing 2 of 2 here] | PKB (Oryctolagus cuniculus): 8.33; AD50 (Mus musculus): 0.034 MPK; bioavailability [9]: 7.6%
15 | 0.062 nM | 62 nM | 1000 | COc1ccc([C@@H]2c3nc(NC(C)C)ccc3[C@H](c3ccc4c(c3)OCO4)[C@H]2C(=O)O)c(CO)c1 | PKB (Oryctolagus cuniculus): 7.76; Plasma level (Rattus norvegicus [6]): 94 nM; Plasma level (Rattus norvegicus [7]): 19 nM; AD50 (Mus musculus): 0.12 MPK; Plasma level (Rattus norvegicus [8]): 130 nM; bioavailability [10]: 57%
16 |  |  | 860 | COc1ccc([C@@H]2c3nc(NC(C)C)ccc3[C@H](c3ccc4c(c3)OCO4)[C@H]2C(=O)O)c(CC(C)CO)c1 (stereo in doubt; form 2) [listing 1 of 2 here] | 
17 |  |  | 680 | COc1ccc([C@@H]2c3nc(NC(C)C)ccc3[C@H](c3ccc4c(c3)OCO4)[C@H]2C(=O)O)c(CC(C)C(=O)N(C)C)c1 (single isomer, unassigned) [listing 2 of 2 here] | 
18 | 0.011 nM | 6 nM |  | COc1ccc([C@@H]2c3nc(NC(C)C)ccc3[C@H](c3ccc4c(c3)OCO4)[C@H]2C(=O)O)c(CC(O)CO)c1 (single isomer, unassigned) [listing 2 of 2 here] | 

Row | IC50 (Endothelin-1 receptor) | IC50 [1] | Selectivity ratio [2] | SMILES | other results
19 |  |  | 1700 | COc1ccc([C@@H]2c3nc(NC(C)C)ccc3[C@H](c3ccc4c(c3)OCO4)[C@H]2C(=O)O)c(OC(C)CO)c1 (stereo in doubt; form 1) [listing 1 of 2 here] | Plasma level (Rattus norvegicus [3]): 47 nM; Plasma level (Rattus norvegicus [4]): 62 nM; Plasma level (Rattus norvegicus [5]): 160 nM
20 | 0.045 nM | 15.7 nM |  | CCC(CO)Cc1cc(OC)ccc1[C@@H]1c2nc(NC(C)C)ccc2[C@H](c2ccc3c(c2)OCO3)[C@H]1C(=O)O (stereo in doubt; form 1) [listing 2 of 2 here] | 
21 | 0.8 nM | 480 nM | 600 | COc1ccc([C@@H]2c3nc(NC(C)C)ccc3[C@H](c3ccc4c(c3)OCO4)[C@H]2C(=O)O)c(OCc2ccccc2)c1 | 
22 | 0.048 nM | 5.6 nM |  | COc1ccc([C@@H]2c3nc(NC(C)C)ccc3[C@H](c3ccc4c(c3)OCO4)[C@H]2C(=O)O)c(CC(O)CO)c1 (stereo in doubt) [listing 1 of 2 here] | 
23 | 0.027 nM | 43 nM | 1600 | COc1ccc([C@@H]2c3nc(NC(C)C)ccc3[C@H](c3ccc4c(c3)OCO4)[C@H]2C(=O)O)c(CN(C)C(C)=O)c1 | PKB (Oryctolagus cuniculus): 8.97; Plasma level (Rattus norvegicus [6]): 3 nM; Plasma level (Rattus norvegicus [7]): 0.4 nM; Plasma level (Rattus norvegicus [8]): 2 nM
24 | 0.059 nM | 51 nM |  | COc1ccc([C@@H]2c3nc(NC(C)C)ccc3[C@H](c3ccc4c(c3)OCO4)[C@H]2C(=O)O)c(CC(C)CO)c1 (stereo in doubt; form 2) [listing 2 of 2 here] | 
25 | 0.057 nM | 78 nM |  | COc1ccc([C@@H]2c3nc(NC(C)C)ccc3[C@H](c3ccc4c(c3)OCO4)[C@H]2C(=O)O)c(OC(C)CO)c1 (stereo in doubt; form 2) [listing 2 of 2 here] | PKB (Oryctolagus cuniculus): 7.46
26 | 0.11 nM | 88 nM | 800 | COc1ccc([C@@H]2c3nc(NC(C)C)ccc3[C@H](c3ccc4c(c3)OCO4)[C@H]2C(=O)O)c(OC(C)C)c1 | 
27 | 0.036 nM | 61 nM |  | COc1ccc([C@@H]2c3nc(NC(C)C)ccc3[C@H](c3ccc4c(c3)OCO4)[C@H]2C(=O)O)c(OC(C)CO)c1 (stereo in doubt; form 1) [listing 2 of 2 here] | PKB (Oryctolagus cuniculus): 8; AD50 (Mus musculus): 0.046 MPK
28 | 0.022 nM | 20 nM | 910 | COc1ccc([C@@H]2c3nc(NC(C)C)ccc3[C@H](c3ccc4c(c3)OCO4)[C@H]2C(=O)O)c(CCCO)c1 | 
29 | 0.014 nM | 14 nM | 1000 | COc1ccc([C@@H]2c3nc(NC(C)C)ccc3[C@H](c3ccc4c(c3)OCO4)[C@H]2C(=O)O)c(CC(C)(C)O)c1 | AD50 (Mus musculus): 0.042 MPK; Plasma level (Rattus norvegicus [3]): 48 nM; Plasma level (Rattus norvegicus [4]): 110 nM; Plasma level (Rattus norvegicus [5]): 460 nM
30 | 0.024 nM | 43 nM |  | COc1ccc([C@@H]2c3nc(NC(C)C)ccc3[C@H](c3ccc4c(c3)OCO4)[C@H]2C(=O)O)c(CC(C)C(=O)N(C)C)c1 (stereo in doubt) [listing 1 of 2 here] | AD50 (Mus musculus): 0.017 MPK
31 | 0.065 nM | 23 nM | 350 | COc1ccc([C@@H]2c3nc(NC(C)C)ccc3[C@H](c3ccc4c(c3)OCO4)[C@H]2C(=O)O)c(CCC(C)(C)O)c1 | 
32 |  |  | 2300 | COCC(C)Cc1cc(OC)ccc1[C@@H]1c2nc(NC(C)C)ccc2[C@H](c2ccc3c(c2)OCO3)[C@H]1C(=O)O (stereo in doubt; form 2) [listing 2 of 2 here] | Plasma level (Rattus norvegicus [3]): 130 nM; Plasma level (Rattus norvegicus [4]): 120 nM; Plasma level (Rattus norvegicus [5]): 810 nM
33 |  |  | 120 | COc1ccc([C@@H]2c3nc(NC(C)C)ccc3[C@H](c3ccc4c(c3)OCO4)[C@H]2C(=O)O)c(CC(O)CO)c1 (stereo in doubt) [listing 2 of 2 here] | 
34 |  |  | 1800 | COc1ccc([C@@H]2c3nc(NC(C)C)ccc3[C@H](c3ccc4c(c3)OCO4)[C@H]2C(=O)O)c(CC(C)C(=O)N(C)C)c1 (stereo in doubt) [listing 2 of 2 here] | Plasma level (Rattus norvegicus [3]): 7 nM; Plasma level (Rattus norvegicus [4]): 10 nM; Plasma level (Rattus norvegicus [5]): 65 nM
35 | 0.22 nM | 290 nM | 1300 | COc1ccc([C@@H]2c3nc(NC(C)C)ccc3[C@H](c3ccc4c(c3)OCO4)[C@H]2C(=O)O)c(O)c1 | 
36 | 0.031 nM | 19 nM | 610 | COc1ccc([C@@H]2c3nc(NC(C)C)ccc3[C@H](c3ccc4c(c3)OCO4)[C@H]2C(=O)O)c(CCO)c1 | 

From ChEMBL document CHEMBL1147633, “Structure-activity relationships of a novel class of endothelin receptor selective antagonists; 6-carboxy-2-isopropylamino-5,7-diarylcyclopenteno[1,2-b]pyridines” (Bioorg Med Chem Lett, 2004)
